# PubChem BioAssay (NCI)
# Values joined by “and” are separate entries in the source; they are usually repeats but may differ in a detail not shown here. Equal entries are not always repeated.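 Five concentrations, 48 hours, 96-well plates. The concentration for 50% growth inhibition is given as GI50. Definition used: TGI = concentration required for complete inhibition of growth.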
# Key:
# Test in all cases: NCI-60 cell line screen, 48 h
# BT-549 breast = test system: BT-549 breast
# HS 578T breast = test system: HS 578T breast
# MCF7 breast = test system: MCF7 breast
# MDA-MB-231 breast = test system: MDA-MB-231 breast
# PC-3 prostate = test system: PC-3 prostate
# T-47D breast = test system: T-47D breast
# DMS 114 small cell lung = test system: DMS 114 small cell lung
# DMS 273 small cell lung = test system: DMS 273 small cell lung
smiles,measurement,setting,value
CCCCCCCCCCCCCCN,TGI,BT-549 breast,> 100 µM
same,TGI,HS 578T breast,> 100 µM
same,TGI,MCF7 breast,> 100 µM
same,TGI,MDA-MB-231 breast,> 100 µM
same,TGI,PC-3 prostate,> 100 µM
same,TGI,T-47D breast,> 100 µM
COc1ccc(NC(=O)C(=O)Cc2nc3ccc([N+](=O)[O-])cc3[nH]c2=O)c(OC)c1,TGI,DMS 114 small cell lung,> 100 µM
same,TGI,DMS 273 small cell lung,> 100 µM
O=[N+]([O-])c1ccc(S(=O)Cc2ccccc2)c([N+](=O)[O-])c1 (centres undefined),GI50,BT-549 breast,2.09 µM
same,TGI,BT-549 breast,7.37 µM
same,GI50,HS 578T breast,21.4 µM
same,TGI,HS 578T breast,> 100 µM
same,GI50,MCF7 breast,2.48 µM
same,TGI,MCF7 breast,6.96 µM
same,GI50,MDA-MB-231 breast,2.82 µM
same,TGI,MDA-MB-231 breast,8.92 µM
same,GI50,PC-3 prostate,14.6 µM
same,TGI,PC-3 prostate,30.9 µM
same,GI50,T-47D breast,1.51 µM
same,TGI,T-47D breast,3.6 µM
COc1cc2c(c(OC)c1OC)-c1ccc(N)c(=O)cc1[C@@H](NC(C)=O)CC2,GI50,BT-549 breast,0.0164 µM
same,TGI,BT-549 breast,0.0744 µM
same,GI50,HS 578T breast,0.0127 µM
same,TGI,HS 578T breast,> 100 µM
same,GI50,MCF7 breast,< 0.01 µM
same,TGI,MCF7 breast,> 100 µM
same,GI50,PC-3 prostate,0.0354 µM
same,TGI,PC-3 prostate,> 100 µM
same,GI50,T-47D breast,> 100 µM
same,TGI,T-47D breast,> 100 µM
CCn1c(C(=O)N(C2CC2)C2CC2)cc2c3c(ncn3C)c(Nc3cc(C)n(C)n3)nc21,GI50,BT-549 breast,> 100 µM
same,TGI,BT-549 breast,> 100 µM
same,GI50,HS 578T breast,3.63 µM
same,TGI,HS 578T breast,> 100 µM
same,GI50,MCF7 breast,> 100 µM
same,TGI,MCF7 breast,> 100 µM
same,GI50,MDA-MB-231 breast,35.5 µM
same,TGI,MDA-MB-231 breast,> 100 µM
same,GI50,PC-3 prostate,> 100 µM
same,TGI,PC-3 prostate,> 100 µM
same,GI50,T-47D breast,> 100 µM
same,TGI,T-47D breast,> 100 µM
CCOC(=O)C1=C(C(=O)c2ccc(C)cc2)C(c2cccc([N+](=O)[O-])c2)C(C(=O)c2ccc(C)cc2)=C(C(=O)OCC)N1,TGI,BT-549 breast,> 100 µM
same,TGI,HS 578T breast,63.9 µM
same,TGI,MCF7 breast,> 100 µM
same,TGI,MDA-MB-231 breast,29 µM
same,TGI,PC-3 prostate,59.9 µM
same,TGI,T-47D breast,8.84 µM
O=C(Nc1ccc(F)cc1)c1ccc(NC2=C(Cl)C(=O)N(Cc3ccccc3)C2=O)cc1,GI50,BT-549 breast,3.14 µM
same,TGI,BT-549 breast,10.8 µM
same,GI50,HS 578T breast,13.2 µM
same,TGI,HS 578T breast,62.3 µM
same,GI50,MCF7 breast,6.24 µM
same,TGI,MCF7 breast,> 100 µM
same,GI50,MDA-MB-231 breast,17.2 µM
same,TGI,MDA-MB-231 breast,38 µM
same,GI50,PC-3 prostate,7.42 µM
same,TGI,PC-3 prostate,22.3 µM
same,GI50,T-47D breast,5.69 µM
same,TGI,T-47D breast,> 100 µM
O=Nc1c(-c2c(O)[nH]c3ccc([N+](=O)[O-])cc23)[nH]c2ccc(O)cc12,GI50,BT-549 breast,0.463 µM
same,TGI,BT-549 breast,> 100 µM
same,GI50,HS 578T breast,0.345 µM
same,TGI,HS 578T breast,> 100 µM
same,GI50,MCF7 breast,0.247 µM
same,TGI,MCF7 breast,> 100 µM
same,GI50,MDA-MB-231 breast,0.5 µM
same,TGI,MDA-MB-231 breast,> 52.7 µM
same,GI50,PC-3 prostate,0.394 µM
same,TGI,PC-3 prostate,> 100 µM
same,GI50,T-47D breast,0.506 µM
same,TGI,T-47D breast,> 100 µM
CCN(CC)CCNc1ccc([N+](=O)[O-])c2sc3ccccc3c(=O)c12,GI50,BT-549 breast,1.74 µM
same,TGI,BT-549 breast,7.8 µM
same,GI50,HS 578T breast,2.17 µM
same,TGI,HS 578T breast,8.15 µM
same,GI50,MCF7 breast,1.27 µM
same,TGI,MCF7 breast,4.74 µM
same,GI50,MDA-MB-231 breast,2.29 µM
same,TGI,MDA-MB-231 breast,9.15 µM
same,GI50,PC-3 prostate,1.05 µM
same,TGI,PC-3 prostate,2.47 µM
same,GI50,T-47D breast,4.4 µM
same,TGI,T-47D breast,18.9 µM
COc1ccc(-c2oc3c(OC)c(OC)c(OC)c(O)c3c(=O)c2OC)cc1OC,TGI,BT-549 breast,> 100 µM
same,TGI,HS 578T breast,17.3 µM
same,TGI,MCF7 breast,> 35.1 µM
same,TGI,MDA-MB-231 breast,> 100 µM
same,TGI,PC-3 prostate,> 93 µM
same,TGI,T-47D breast,25.6 µM
CCCCS(=O)CCC(N)C(=O)O (centres undefined),TGI,BT-549 breast,> 100 µM
same,TGI,HS 578T breast,> 100 µM
same,TGI,MCF7 breast,> 100 µM
same,TGI,MDA-MB-231 breast,> 100 µM
same,TGI,PC-3 prostate,> 100 µM
same,TGI,T-47D breast,> 100 µM
C=CCN(/C=C1/C(=O)O[C@H](COC)[C@@]2(C)C1=C(O)C(=O)C1=C2[C@H](OC(C)=O)C[C@]2(C)C(=O)CC[C@@H]12)CC=C,GI50,BT-549 breast,0.141 µM
same,TGI,BT-549 breast,4.12 µM
same,GI50,HS 578T breast,0.128 µM
same,TGI,HS 578T breast,1.94 µM
same,GI50,MCF7 breast,0.435 µM
same,TGI,MCF7 breast,> 10 µM
same,GI50,MDA-MB-231 breast,6.23 µM
same,TGI,MDA-MB-231 breast,> 10 µM
same,GI50,PC-3 prostate,0.177 µM
same,TGI,PC-3 prostate,> 10 µM
same,GI50,T-47D breast,0.0992 µM
same,TGI,T-47D breast,> 3.78 µM
O=C1c2ccc([N+](=O)[O-])cc2-c2c1c1ccccc1c(=O)n2CCCNCCCNCCCn1c2c(c3ccc([N+](=O)[O-])cc3c1=O)C(=O)c1ccccc1-2,GI50,BT-549 breast,4.91 µM
same,TGI,BT-549 breast,37.2 µM
same,GI50,HS 578T breast,1.43 µM
same,TGI,HS 578T breast,22.7 µM
same,GI50,MCF7 breast,0.961 µM
same,TGI,MCF7 breast,4.55 µM
same,GI50,MDA-MB-231 breast,0.407 µM
same,TGI,MDA-MB-231 breast,2.85 µM
same,GI50,PC-3 prostate,3.31 µM
same,TGI,PC-3 prostate,15.9 µM
same,GI50,T-47D breast,2.23 µM
same,TGI,T-47D breast,7.95 µM
CO/C(=N\N=C\c1cccc(Cl)c1)c1ccncc1,TGI,BT-549 breast,> 10 µM
same,TGI,MCF7 breast,> 10 µM
same,TGI,MDA-MB-231 breast,> 10 µM
same,TGI,PC-3 prostate,> 10 µM
same,TGI,T-47D breast,> 10 µM
Cc1ccc(/C(=N\N=C(N)N)c2ccccc2)cc1,GI50,BT-549 breast,0.744 µM
same,TGI,BT-549 breast,7.62 µM
same,GI50,HS 578T breast,0.349 µM
same,TGI,HS 578T breast,3.67 µM
same,GI50,MCF7 breast,0.292 µM
same,TGI,MCF7 breast,10.2 µM
same,GI50,MDA-MB-231 breast,0.394 µM
same,TGI,MDA-MB-231 breast,3.93 µM
same,GI50,PC-3 prostate,0.406 µM
same,TGI,PC-3 prostate,18.7 µM
same,GI50,T-47D breast,0.421 µM
same,TGI,T-47D breast,24.6 µM
CN1CCN(c2ccc(NC(=O)c3nc4ccc5[nH]ncc5c4c4c3CCCC4)cc2C(F)(F)F)CC1,GI50,BT-549 breast,6.07 µM
same,TGI,BT-549 breast,12.4 µM
same,GI50,HS 578T breast,5.99 µM
same,TGI,HS 578T breast,19.4 µM
same,GI50,MCF7 breast,0.964 µM
same,TGI,MCF7 breast,2.32 µM
same,GI50,MDA-MB-231 breast,0.941 µM
same,TGI,MDA-MB-231 breast,1.72 µM
same,GI50,T-47D breast,0.835 µM
same,TGI,T-47D breast,1.74 µM
CCCc1c(CC)c(=N)c2ccccc2n1C,GI50,BT-549 breast,44.2 µM
same,TGI,BT-549 breast,> 100 µM
same,GI50,HS 578T breast,> 100 µM
same,TGI,HS 578T breast,> 100 µM
same,GI50,MCF7 breast,30 µM
same,TGI,MCF7 breast,> 100 µM
same,GI50,MDA-MB-231 breast,> 100 µM
same,TGI,MDA-MB-231 breast,> 100 µM
same,GI50,PC-3 prostate,71.5 µM
same,TGI,PC-3 prostate,> 100 µM
same,GI50,T-47D breast,33 µM
same,TGI,T-47D breast,> 100 µM
O=C(/C=C/C12c3ccccc3C(c3ccccc31)C1C(=O)N(c3ccccc3)C(=O)C12)c1ccccc1 (centres undefined),GI50,BT-549 breast,1.37 µM
same,TGI,BT-549 breast,3.02 µM
same,GI50,HS 578T breast,2.32 µM
same,TGI,HS 578T breast,> 100 µM
same,GI50,MCF7 breast,1.48 µM
same,TGI,MCF7 breast,> 100 µM
same,GI50,MDA-MB-231 breast,2.23 µM
same,TGI,MDA-MB-231 breast,6.77 µM
same,GI50,PC-3 prostate,2.07 µM
same,TGI,PC-3 prostate,> 100 µM
CCC(=O)O[C@H]1CC[C@H]2[C@@H]3CC[C@H]4CC(=O)[C@H](C)C[C@]4(C)[C@H]3CC[C@]12C,GI50,BT-549 breast,37 µM
same,TGI,BT-549 breast,> 100 µM
same,GI50,HS 578T breast,44 µM
same,TGI,HS 578T breast,> 100 µM
same,GI50,MCF7 breast,23.9 µM
same,TGI,MCF7 breast,> 66.1 µM
same,GI50,MDA-MB-231 breast,> 90.8 µM
same,TGI,MDA-MB-231 breast,> 100 µM
same,GI50,PC-3 prostate,10.5 µM
same,TGI,PC-3 prostate,> 100 µM
same,GI50,T-47D breast,26 µM
same,TGI,T-47D breast,> 100 µM
Oc1ccc(C(c2ccc(O)cc2)c2ccc(Cl)cn2)cc1,GI50,BT-549 breast,0.0231 µM
same,TGI,BT-549 breast,0.0707 µM
same,GI50,HS 578T breast,0.0216 µM
same,TGI,HS 578T breast,0.0624 µM
same,GI50,MCF7 breast,0.0546 µM
same,TGI,MCF7 breast,0.545 µM
same,GI50,MDA-MB-231 breast,28 µM
same,TGI,MDA-MB-231 breast,> 100 µM
same,GI50,PC-3 prostate,0.194 µM
same,TGI,PC-3 prostate,0.708 µM
same,GI50,T-47D breast,0.0243 µM
same,TGI,T-47D breast,0.0762 µM
CCCC(=O)Nc1cc(C(=O)N2C[C@@H]3C[C@]34C2=CC(=O)c2[nH]cc(C)c24)n(COC)c1,GI50,BT-549 breast,3 µM
same,TGI,BT-549 breast,29.5 µM and 11.3 µM
same,GI50,HS 578T breast,4.31 µM
same,TGI,HS 578T breast,38.2 µM and 27.1 µM
same,TGI,MCF7 breast,50 µM and 11.9 µM
same,GI50,MDA-MB-231 breast,2.94 µM
same,TGI,MDA-MB-231 breast,29.5 µM and 8.01 µM
same,GI50,PC-3 prostate,2.86 µM
same,TGI,PC-3 prostate,37.5 µM and 13.2 µM
same,GI50,T-47D breast,2.38 µM
same,TGI,T-47D breast,30.2 µM and 10.6 µM
